Test results as given in US5773411A, “Cyclic compounds linked by a heterocyclic ring useful as inhibitors of platelet glycoprotein IIB/IIIA” (The DuPont Merck Pharmaceutical Company, priority 1994, dated 1998).

Test system: agonist-induced platelet aggregation in platelet-rich plasma (PRP)
Test: Platelet Aggregation Assay
Type: cell-based
Conditions: human PRP; agonists ADP, collagen, arachidonate, epinephrine, thrombin; compound added prior to activation of the platelets
Experimental: Platelet Aggregation Assay
Venous blood was obtained from the arm of a healthy human donor who was drug-free and aspirin-free for at least two weeks prior to blood collection. Blood was collected into 10 ml citrated Vacutainer tubes. The blood was centrifuged for 15 minutes at 150×g at room temperature, and platelet-rich plasma (PRP) was removed. The remaining blood was centrifuged for 15 minutes at 1500×g at room temperature, and platelet-poor plasma (PPP) was removed. Samples were assayed on a aggregometer (PAP-4 Platelet Aggregation Profiler), using PPP as the blank (100% transmittance). 200 μl of PRP was added to each micro test tube, and transmittance was set to 0%. 20 μl of various agonists (ADP, collagen, arachidonate, epinephrine, thrombin) were added to each tube, and the aggregation profiles were plotted (% transmittance versus time). The results were expressed as % inhibition of agonist-induced platelet aggregation. For the IC50 evaluation, the test compounds were added at various concentrations prior to the activation of the platelets.

Molecule	IC50 [nM]
cyclo-(D-Val-N(Me)Arg-Gly-Asp-[2-amino]-4-thiazoleacetate) [Example 4]	< 1000
CC(C)[C@H]1NC(=O)c2cccc(n2)CNC(=O)[C@H](CC(=O)O)NC(=O)CNC(=O)[C@H](CCCNC(=N)N)N(C)C1=O [Example 3, cyclo(6-(D-Val-NMeArg-Gly-Asp)aminomethyl-2-pyridinecarboxylate)]	1000 to 10000
CC(C)[C@H]1NC(=O)C2=CC=C(CNC(=O)[C@H](CC(=O)O)NC(=O)CNC(=O)[C@H](CCCNC(=N)N)N(C)C1=O)O2 [Example 1, cyclo-(D-Val-N(Me)Arg-Gly-Asp-[5-aminomethyl]-2-furoate)]	< 1000
